According to US12582731B2, “Method to decontaminate solid surface” (BIOMONETA RESEARCH PVT LTD, priority 2022, dated 2026):

Columns and labels:
microbial load [1] = assay: Microbial load reduction on cotton cloth coated with quaternary ammonium compound alone; format: cell-based; conditions: no electric field
Method: The solid surface (cotton cloth) was suspended in a solution containing cetyltrimethylammonium bromide (CTAB) or alkyl dimethyl benzyl ammonium chloride (benzalkonium chloride) at various concentrations for about 2 hours. The solid surfaces were then heat dried in a furnace where the temperature was set at about 80° C., for about 8 hours. Once dried, the solid surfaces coated with QAC were ready to be used for various applications.
Reduction in microbial load was analysed at different concentrations of QACs.

microbial load [2] = assay: Microbial load reduction on QAC-coated cotton cloth with or without electric field; format: cell-based
Method: The effect of QAC coating and electric field application on flexible solid surfaces was analysed. The solid surface analysed was fabric (cotton cloth). The procedure for coating of QAC (CTAB or benzalkonium chloride) onto the cotton cloth was identical to the procedure described in Example 1. The final coated amount of QAC (CTAB or benzalkonium chloride) was between 0.01-0.05 mg/cm^2 of the solid surface. The electric field in this experiment was applied via. switch mode power supply (SMPS) with a voltage of 4 kV/cm coupled with a capacitance of 0.05 μF for various time-periods.
Reduction in microbial load was analysed using different methods.

Question: “alkyl dimethyl benzyl ammonium chloride [benzalkonium chloride]” was tested. Which “Microbial Load Reduction (Log10 Scale)” value (microbial load [1]; cotton cloth coated with 1% w/v, 0 mins) did it give?
Answer: 0.00 Log10

Question: What about the “Microbial Load Reduction (Log10 Scale)” value (microbial load [1]; cotton cloth coated with 1% w/v, 10 mins) of the same substance?
Answer: 0.82 Log10

Question: What about the “Microbial Load Reduction (Log10 Scale)” value (microbial load [1]; cotton cloth coated with 1% w/v, 30 mins) of the same substance?
Answer: 1.70 Log10

Question: What about the “Microbial Load Reduction (Log10 Scale)” value (microbial load [1]; cotton cloth coated with 1% w/v, 45 mins) of the same substance?
Answer: 4.57 Log10

Question: What about the “Microbial Load Reduction (Log10 Scale)” value (microbial load [1]; cotton cloth coated with 1% w/v, 60 mins) of the same substance?
Answer: 7.48 Log10

Question: What about the “Microbial Load Reduction (Log10 Scale)” value (microbial load [1]; cotton cloth coated with 1% w/v, 90 mins) of the same substance?
Answer: 7.48 Log10

Question: And the “Microbial Load Reduction (Log10 Scale)” value (microbial load [1]; cotton cloth coated with 10% w/v, 0 mins)?
Answer: 0.00 Log10

Question: And the “Microbial Load Reduction (Log10 Scale)” value (microbial load [1]; cotton cloth coated with 10% w/v, 10 mins)?
Answer: 0.92 Log10

Question: And the “Microbial Load Reduction (Log10 Scale)” value (microbial load [1]; cotton cloth coated with 10% w/v, 30 mins)?
Answer: 3.10 Log10

Question: What about the “Microbial Load Reduction (Log10 Scale)” value (microbial load [1]; cotton cloth coated with 10% w/v, 45 mins) of the same substance?
Answer: 7.30 Log10

Question: What about the “Microbial Load Reduction (Log10 Scale)” value (microbial load [1]; cotton cloth coated with 10% w/v, 60 mins) of the same substance?
Answer: 7.30 Log10

Question: What about the “Microbial Load Reduction (Log10 Scale)” value (microbial load [1]; cotton cloth coated with 10% w/v, 90 mins) of the same substance?
Answer: 7.30 Log10

Question: What about the “Microbial Load Reduction (Log10 Scale)” value (microbial load [2]; cotton cloth coated with 1% w/v, With Electric Field (SMPS, 4 kV/cm, 0.05 μF), 0 mins) of the same substance?
Answer: 0.00 Log10

Question: And the “Microbial Load Reduction (Log10 Scale)” value (microbial load [2]; cotton cloth coated with 1% w/v, With Electric Field (SMPS, 4 kV/cm, 0.05 μF), 10 mins)?
Answer: 1.51 Log10

Question: And the “Microbial Load Reduction (Log10 Scale)” value (microbial load [2]; cotton cloth coated with 1% w/v, With Electric Field (SMPS, 4 kV/cm, 0.05 μF), 30 mins)?
Answer: 2.39 Log10

Question: What about the “Microbial Load Reduction (Log10 Scale)” value (microbial load [2]; cotton cloth coated with 1% w/v, Without Electric Field, 0 mins) of the same substance?
Answer: 0.00 Log10

Question: What about the “Microbial Load Reduction (Log10 Scale)” value (microbial load [2]; cotton cloth coated with 1% w/v, Without Electric Field, 10 mins) of the same substance?
Answer: 0.82 Log10

Question: What about the “Microbial Load Reduction (Log10 Scale)” value (microbial load [2]; cotton cloth coated with 1% w/v, Without Electric Field, 30 mins) of the same substance?
Answer: 1.70 Log10

Question: And the “Microbial Load Reduction (Log10 Scale)” value (microbial load [2]; cotton cloth coated with 10% w/v, With Electric Field (SMPS, 4 kV/cm, 0.05 μF), 0 mins)?
Answer: 0.00 Log10

Question: What about the “Microbial Load Reduction (Log10 Scale)” value (microbial load [2]; cotton cloth coated with 10% w/v, With Electric Field (SMPS, 4 kV/cm, 0.05 μF), 10 mins) of the same substance?
Answer: 1.16 Log10

Question: What about the “Microbial Load Reduction (Log10 Scale)” value (microbial load [2]; cotton cloth coated with 10% w/v, With Electric Field (SMPS, 4 kV/cm, 0.05 μF), 30 mins) of the same substance?
Answer: 3.03 Log10

Question: And the “Microbial Load Reduction (Log10 Scale)” value (microbial load [2]; cotton cloth coated with 10% w/v, Without Electric Field, 0 mins)?
Answer: 0.00 Log10

Question: And the “Microbial Load Reduction (Log10 Scale)” value (microbial load [2]; cotton cloth coated with 10% w/v, Without Electric Field, 10 mins)?
Answer: 0.92 Log10

Question: What about the “Microbial Load Reduction (Log10 Scale)” value (microbial load [2]; cotton cloth coated with 10% w/v, Without Electric Field, 30 mins) of the same substance?
Answer: 3.10 Log10
